According to patent US9339508B2, “Use of 3-methoxy-pregnenolone for the preparation of a drug for treating a traumatic brain injury” (MAPREG, priority 2003, dated 2016):

Tests used:
[1] = MAP4343 in the brain after TBI (CHI, LFP, CCI) by LC-MS/MS; type: in vivo, rat; conditions: 6 h after CHI, LFP or CCI, 4 h after single subcutaneous injection
Experimental: MAP4343 was dissolved in sesame oil and injected sub-cutaneously. Two distinct doses of MAP4343 (10 and 20 mg/kg) were tested in each model. The injection took place 2 h after trauma.
In order to establish whether TBI modifies the passage of MAP4343 into the brain, MAP4343 was measured by liquid chromatography associated to tandem mass spectrometry (LC-MS/MS) in the brain of animals sacrificed 6 h after CHI, LFP or CCI (4 h after MAP4343 single injection).
In order to establish whether TBI modifies the passage of 3-methoxy-PREG (MAP434) into the brain, MAP4343 was measured by liquid chromatography coupled to tandem mass spectrometry LC-MS/MS in the brain of animals sacrificed 6 h after CHI, LFP or CCI (4 h. after MAP4343 injection).

Sprague Dawley rats [2] = experiment: Forced swimming test (FST); type: in vivo, rat; conditions: 10 mg/kg subcutaneously, 24, 5, 1 h before testing
Experimental: Drugs were administered following the traditional dosing regimen used in the FST consisting of three injections: 24, 5, 1 h before testing.
The FET is currently the most widely used animal model for assessing depression related behavior and antidepressant drug activity in rodents (Cryan et al., Neubiorev. 2005). Rats are placed in an inescapable cylinder of water where they develop an immobile posture believed to reflect a “depressive”-like state. The Lime rats spend immobile is decreased by drugs exerting antidepressant activity.
Additional behaviors can be detected in the FST; namely, climbing and swimming. It has been shown that swimming behavior is sensitive to SSRIs such as fluoxetine whereas climbing is sensitive to norepinephrine re-uptake inhibitors (NRI) such as desipramine.

PSD95 = experiment: Western blot of PSD95 in cortex and hippocampus after CCI; type: in vivo, rat; conditions: day 35, 20 mg/kg, first injection 2 h post-trauma, ipsilateral injured cortex and hippocampus, contralateral cortex
Experimental: (§1) CCI was performed with an electromagnetic impact device as described (MyNeurolab, St. Louis, Mo.; Brody et al, 2007). Anesthesized rats were subjected to a single right lateral CCI, with the following parameters impact centered 4.0 mm anterior to lambda and 4.5 mm […] of midline, within the craniotomy of the animal. The impact was set at a velocity of 4 m/s with a sustained depression of 200 ms, using a 5.0 mm tip.
(§2) Samples were analyzed by Western-blot at day 35 post-trauma (D35) to evaluate the effects of MAP4343 on: MAP2 (the target of MAP4343 and a modulator of microtubule function), the post-synaptic markers PSD95 and spinophilin, the pre-synaptic marker synaptophysin, and the axonal growth/integrity marker […].
(§3) Western blot was performed on cortex and hippocampus of TBI-injured animals receiving the first injection of MAP4343 (at 10 mg/kg or 20 mg/kg) or vehicle (sesame oil) 2 h after injury.
(§4) The expression level of various neuronal brain markers of plasticity was measured at day 35 post-trauma by western-blots in the cortex and hippocampus of left uninjured and right injured cerebral hemispheres of CCI traumatized animals receiving either vehicle (sesame oil, CCI-D0) or 3-methoxy-PREG (MAP4343) at 10 mg/kg (CCI-D1) or 20 mg/kg (CCI-D2), with first MAP4343 injection 2 h post-trauma.

spinophilin = experiment: Western blot of spinophilin in cortex and hippocampus after CCI; type: in vivo, rat; conditions: day 35, 10 mg/kg or 20 mg/kg, first injection 2 h post-trauma, injured cortex and hippocampus and contralaterally
Experimental: as §1, §2, §3, §4

[3] = Pharmacokinetics by GC/MS, brain and spinal cord; type: in vivo, rat; conditions: 12 mg/kg subcutaneous in sesame oil; 1, 4, 8, 24 hours
Experimental: FIG. 9: Kinetics of the appearance of 3-methoxy-PREG (43B) in rat brain and spinal cord following subcutaneous injection of 43B (12 mg/kg) in a sesame oil solution.
The pharmacokinetics of the molecules tested in vivo are evaluated using gas chromatography/mass spectrometry (GC/MS) assays.

Sprague Dawley rats [4] = experiment: Novel object recognition test, naive animals, 4 h ITI; type: in vivo, rat; conditions: 10 mg/kg subcutaneously immediately after T1
Excerpt: Cognitive dysfunction, including impaired recognition memory, are common features in depressed patients (Egeland et al., Scand. J. Psychol. 2005). The present experiment explored the ability of 3-methoxy-PREG (43B) administration to increase recognition memory retention in naive animals and to recover recognition memory deficits in animals submitted to the social isolation protocol. Rearing rats in isolation from the time of weaning and throughout adulthood can induce a series of hippocampal structural and molecular deficits paralled by behavioural alterations resembling a depressive-like state (Weiss and Feldon, Psychopharmacology 2001; Bianchi et al., EJN 2006). Recognition memory was assessed using the NOR test which is a two-trial test of recognition memory based on the spontaneous preference of rats for novelty (Ennaceur and Delacour, Behav. Brain. Res. 1988; Bianchi et al. EJN. 2006). Briefly, rats are placed in the open field arena for a 3 min period of habituation and then re-placed in their “home” cage for 1 min. The animals are then re-placed in the arena for the familiarization trial (T1) and allowed to explore two identical objects for 5 min. […] The ability of the animals to discriminate between the novel and the familiar object is then expressed as D2-INDEX: [novel object (sec)−familiar object (sec)]/[novel object (sec)+familiar object (sec)] […]

[5] = test system: transgenic mice expressing the longest isoform of human tau protein; experiment: RotaRod motor incoordination in transgenic tau mice; type: in vivo, mouse; conditions: subcutaneous implant releasing 0.38 mg per day for 90 days
Excerpt: FIG. 8: Effect of molecule 43B on the motor incoordination of transgenic mice expressing the longest isoform of human tau protein in their neurons. […] The maximum speed of rotation of the RotaRod drum before the […] falls is a measurement of motor coordination (higher values correspond to a better treatment effect).
In order to evaluate the therapeutic potential of 433 to treat Alzheimer-type neurodegenerative diseases, a homozygous transgenic line of mice, such as described by Götz (EMBO J. 1995; 14(7):1304-13), can be used.
These mice express the longest human tau protein isoform. They present symptoms of neurological dysfunction expressed as muscular weakness and a reduction in motor coordination which correlate histologically with the appearance of abnormal neurites and hyperphosphorylated tau proteins as is seen in Alzheimer's disease. This pathological phosphorylation decreases the affinity of tau for microtubules and favors its aggregation.
A breeding program was undertaken at Bicêtre and genotyping made it possible to select mice homozygous for the transgene. […] The implants released 0.38 mg of steroid per day for 90 days. The progression of motor incoordination was followed by repeated RotaRod tests.

## CO[C@H]1CC[C@@]2(C)C(=CC[C@H]3[C@@H]4CC[C@H](C(C)=O)[C@@]4(C)CC[C@@H]32)C1 [3-methoxy-PREG, 3β-methoxy-pregna-5-ene-20-one]
[1]
  concentrations of MAP4343 that reach the brain: concentrations of MAP4343 of significant therapeutic interest reach the brain
Sprague Dawley rats [2]
  rat climbing behavior in the FST: not changed
  rat immobility in the FST: significantly decreased
  rat swimming in the FST: significantly increased
PSD95
  PSD95 expression: increase in PSD95 expression
spinophilin
  spinophilin expression: increase in spinophilin expression
[3]
  penetration into spinal cord and brain: penetrates rapidly into the spinal cord and the brain
Sprague Dawley rats [4]
  discrimination between novel and familiar object: discriminated between the novel and the familiar object showing increased memory retention
[5]
  motor dysfunction (RotaRod): beneficial effect on motor dysfunction
